In ChEMBL document CHEMBL1127275, “Peptide based P21RAS farnesyl transferase inhibitors: systematic modification of the tetrapeptide CA1A2X motif” (Bioorg Med Chem Lett, 1994):

Molecular target: Protein farnesyltransferase (Rattus norvegicus, UniProt Q02293+Q04631)
Test: In vitro inhibitory concentration evaluated against P21ras Farnesyl transferase
Format: protein-complex assay

Row | Structure (SMILES) | IC50
1 | CSCC[C@H](NC(=O)[C@H](Cc1ccccc1)NC(=O)[C@@H](NC(=O)C[C@H](N)CS)C(C)C)C(=O)O | 1.8 µM
2 | CSCC[C@H](NC(=O)[C@@H](NC(=O)[C@@H](NC(=O)[C@@H](N)CS)C(C)C)C(C)C)C(=O)O | 0.068 µM
3 | CSCC[C@H](NC(=O)[C@H](CCc1ccccc1)NC(=O)[C@@H](NC(=O)[C@@H](N)CS)C(C)C)C(=O)O | 0.12 µM
4 | CSCC[C@H](NC(=O)[C@H](Cc1ccccc1)NC(=O)C(C)(C)NC(=O)[C@@H](N)CS)C(=O)O | 0.4 µM
5 | CSCC[C@H](NC(=O)[C@H](Cc1ccccc1)NC(=O)[C@@H](NC(=O)[C@@H](N)CCC(=O)O)C(C)C)C(=O)O | 120 µM
6 | CSCC[C@H](NC(=O)[C@H](Cc1c[nH]c2ccccc12)NC(=O)[C@@H](NC(=O)[C@@H](N)CS)C(C)C)C(=O)O | 0.014 µM
7 | CSCC[C@H](NC(=O)[C@H](Cc1ccc2ccccc2c1)NC(=O)[C@@H](NC(=O)[C@@H](N)CS)C(C)C)C(=O)O | 0.012 µM
8 | CSCC[C@H](NC(=O)[C@H](Cc1ccccc1)NC(=O)[C@@H](NC(=O)[C@@H](N)CC(=O)O)C(C)C)C(=O)O | 250 µM
9 | CSCC[C@H](NC(=O)[C@H](Cc1ccccc1)NC(=O)[C@@H](NC(=O)[C@@H](N)Cc1cnc[nH]1)C(C)C)C(=O)O | 6.8 µM
10 | CSCC[C@H](NC(=O)[C@H](Cc1ccccc1)NC(=O)[C@@H](NC(=O)[C@@H](N)CCS)C(C)C)C(=O)O (stereo in doubt; form 2) | 2.7 µM
11 | CSCC[C@H](NC(=O)[C@H](Cc1ccccc1)NC(=O)[C@@H](NC(=O)[C@@H](N)CCS)C(C)C)C(=O)O (stereo in doubt; form 1) | 0.51 µM
12 | CSCC[C@H](NC(=S)[C@H](Cc1ccccc1)NC(=O)[C@@H](NC(=O)[C@@H](N)CS)C(C)C)C(=O)O | 0.017 µM
13 | CSCC[C@H](NC(=O)[C@H](Cc1ccccc1)NC(=O)[C@H](C)NC(=O)[C@@H](N)CS)C(=O)O | 0.241 µM
14 | CSCC[C@H](NC(=O)[C@H](Cc1ccccc1)NC(=O)[C@H](C(C)C)N(C)C(=O)[C@@H](N)CS)C(=O)O | 0.25 µM
15 | CSCC[C@H](NC(=O)[C@H](Cc1ccccc1)NC(=O)C1(NC(=O)[C@@H](N)CS)CCCCC1)C(=O)O | 1.2 µM
16 | CSCC[C@@H](C(=O)O)N(C)C(=O)[C@H](Cc1ccccc1)NC(=O)[C@@H](NC(=O)[C@@H](N)CS)C(C)C | 1.4 µM
17 | CSCC[C@H](NC(=O)[C@@H](NC(=O)[C@@H](NC[C@@H](N)CS)C(C)C)C(C)C)C(=O)O | 0.029 µM
18 | CSCC[C@H](NC(=O)[C@H](Cc1ccccc1)NC(=O)[C@@H](NC[C@@H](N)CS)C(C)C)C(=O)O | 0.012 µM
19 | CCCC[C@H](NC(=O)[C@H](Cc1ccccc1)NC(=O)[C@@H](NC(=O)[C@@H](N)CS)C(C)C)C(=O)O | 0.95 µM
20 | CSCC[C@H](NC(=O)[C@H](Cc1ccccc1)NC[C@@H](NC(=O)[C@@H](N)CS)C(C)C)C(=O)O | 0.126 µM
21 | CSCC[C@H](NC(=O)[C@@H](NC(=O)[C@@H](NC(=O)[C@@H](N)CS)C(C)C)c1ccccc1)C(=O)O | 0.696 µM
22 | CC(C)[C@H](NC(=O)[C@@H](N)CS)C(=O)N[C@@H](Cc1ccccc1)C(=O)N[C@@H](Cc1ccccc1)C(=O)O | 0.4 µM
23 | CSCC[C@H](NC(=O)[C@H](Cc1ccccc1)N(C)C(=O)[C@@H](NC(=O)[C@@H](N)CS)C(C)C)C(=O)O | 0.36 µM
24 | CN[C@@H](CS)C(=O)N[C@H](C(=O)N[C@@H](Cc1ccccc1)C(=O)N[C@@H](CCSC)C(=O)O)C(C)C | 0.42 µM
